Biological target: T1, EBP (Homo sapiens, UniProt Q15125)
T1 construct: HEK293T cells were utilized as the source of EBP enzyme; endogenous in cells; host or cells: HEK293T
Assay: EBP Functional Assay (EBP immunoaffinity LC-MS assay)
Format: biochemical
Conditions: EBP enzyme from HEK293T cells; 30 min with inhibitor, then zymosterol-d5, 37° C., 4 h; percent conversion to dehydrolathosterol-d5 by LC-APCI MRM MS
Summary of the method: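 HEK293T cells served as EBP source; enzyme preincubated 30 min with inhibitor dilutions, then zymosterol-d5 substrate added and incubated 4 h at 37° C. Sterols extracted and quantified by LC-APCI MRM MS; percent conversion to […] fit to 4-parameter logistic for IC50. Tasin-1 reference inhibitor.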

T1 sequence (Q15125 whole entry): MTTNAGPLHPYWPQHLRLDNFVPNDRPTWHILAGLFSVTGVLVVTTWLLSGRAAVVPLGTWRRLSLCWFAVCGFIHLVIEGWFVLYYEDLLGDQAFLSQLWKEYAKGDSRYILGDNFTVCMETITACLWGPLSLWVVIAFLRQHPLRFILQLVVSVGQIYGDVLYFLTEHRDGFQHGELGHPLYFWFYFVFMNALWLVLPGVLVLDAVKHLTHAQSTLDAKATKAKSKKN

Row | Compound | IC50 [nM]
1 | O=S(=O)(c1ccc(OC(F)F)cc1)N1CCC2(CC1)CN(C1CCOCC1)C2 [Example 32, 7-((4-(Difluoromethoxy)phenyl)sulfonyl)-2-(tetrahydro-2H-pyran-4-yl)-2,7-diazaspiro[3.5]nonane] | 250 to 4000
2 | O=S(=O)(c1cc(C(F)(F)F)nn1CC1CC1)N1CC2(CN(CC3CCOCC3)C2)C1 [Example 66, 2-((1-(cyclopropylmethyl)-3-(trifluoromethyl)-1H-pyrazol-5-yl)sulfonyl)-6-((tetrahydro-2H-pyran-4-yl)methyl)-2,6-diazaspiro[3.3]heptane] | 250 to 4000
3 | COCCN1CCC2(CC1)CN(S(=O)(=O)c1ccc(OC(F)F)cc1)CCO2 [Example 7, 4-((4-(Difluoromethoxy)phenyl)sulfonyl)-9-(2-methoxyethyl)-1-oxa-4,9-diazaspiro[5.5]undecane] | 250 to 4000
4 | COc1ccc(S(=O)(=O)N2CC3(CN(C4CCOCC4)C3)C2)c(C)n1 [Example 47] | 100 to 250
5 | Cc1nc(C(F)(F)F)ccc1S(=O)(=O)N1CC2(CN(CC3(C)CCCO3)C2)C1 (centres unmarked) [Example 134] | 100 to 250
6 | Cn1nc(C(F)(F)F)cc1S(=O)(=O)N1CC2(CN(C3CCOCC3)C2)C1 [Example 46, 2-((1-Methyl-3-(trifluoromethyl)-1H-pyrazol-5-yl)sulfonyl)-6-(tetrahydro-2H-pyran-4-yl)-2,6-diazaspiro[3.3]heptane] | 100 to 250
7 | Cc1nc(C(F)(F)F)ccc1S(=O)(=O)N1CC2(CN(CC3CCCOC3)C2)C1 (centres unmarked) [Example 136] | 100 to 250
8 | COCCCCCN1CC2(C1)CN(S(=O)(=O)c1ccc(C(F)(F)F)nc1C)C2 [Example 179] | 100 to 250
9 | O=S(=O)(c1cnc(C2CC2)s1)N1CCOC2(CCN(C3CC4(COC4)C3)C2)C1 (centres unmarked) [Example 24, 9-((2-Cyclopropylthiazol-5-yl)sulfonyl)-2-(2-oxaspiro[3.3]heptan-6-yl)-6-oxa-2,9-diazaspiro[4.5]decane] | 100 to 250
10 | 4-((6-((2-methyl-6-(trifluoromethyl)pyridin-3-yl)sulfonyl)-2,6-diazaspiro[3.3]heptan-2-yl)methyl)tetrahydro-2H-pyran-4-ol [Example 75] | 250 to 4000
11 | Cc1ccc(S(=O)(=O)N2CC3(CCN(C4CCOCC4)C3)C2)c(C)c1 [Example 52, 2-((2,4-Dimethylphenyl)sulfonyl)-6-(tetrahydro-2H-pyran-4-yl)-2,6-diazaspiro[3.4]octane] | < 100

Continued, values first:

Row | IC50 [nM] | Compound
12 | < 100 | Cc1nc(OC(F)F)ccc1S(=O)(=O)N1CC2(CN(C3CCOCC3)C2)C1 [Example 94, 2-((6-(difluoromethoxy)-2-methylpyridin-3-yl)sulfonyl)-6-(tetrahydro-2H-pyran-4-yl)-2,6-diazaspiro[3.3]heptane]
13 | < 100 | O=S(=O)(c1ccc(C(F)F)nc1C1CC1)N1CC2(CN(C3CCOCC3)C2)C1 [Example 116, 2-((2-cyclopropyl-6-(difluoromethyl)pyridin-3-yl)sulfonyl)-6-(tetrahydro-2H-pyran-4-yl)-2,6-diazaspiro[3.3]heptane]
14 | < 100 | Cn1nc(C(F)(F)F)cc1S(=O)(=O)N1CC2(CN(CC3CCOC(C)(C)C3)C2)C1 (racemic) [Example 198, rac-2-((2,2-dimethyltetrahydro-2H-pyran-4-yl)methyl)-6-((1-methyl-3-(trifluoromethyl)-1H-pyrazol-5-yl)sulfonyl)-2,6-diazaspiro[3.3]heptane]
15 | < 100 | O=S(=O)(c1ccc(OC(F)F)cc1)N1CCO[C@@]2(CCN(C3CCOCC3)C2)C1 (single isomer, unassigned) [Example 4]
16 | < 100 | Cn1nc(C(F)(F)F)cc1S(=O)(=O)N1CC2(CN(CC3CCOCC3)C2)C1 [Example 202, 2-((1-methyl-3-(trifluoromethyl)-1H-pyrazol-5-yl)sulfonyl)-6-((tetrahydro-2H-pyran-4-yl)methyl)-2,6-diazaspiro[3.3]heptane]
17 | < 100 | Cc1nc(C(F)(F)F)ccc1S(=O)(=O)N1CCC2(CCN(C3CCOCC3)C2)CC1 [Example 42]
